Values joined by “and” are separate entries in the source; they are usually repeats but may differ in a detail not shown here. Identical values can stand only once. Inconclusive results and toxic doses are left out. Rule for the calls: active = survival T/C of 150% or more; inactive = T/C below 125% in these data.
Test system: P388 leukemia ip, CD2F1 mice, survival T/C
Test: NCI In Vivo Anticancer Drug Screen. Data for tumor model P388 Leukemia (intraperitoneal) in CD2F1 (CDF1) mice
Conditions: endpoint: median survival time, higher = longer survival
Method in brief: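 Mice carrying the transplanted tumor received test compound or vehicle. Survival was recorded in each group, and the value is the treated-group measurement divided by that of the vehicle-treated control group.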

[1] = dose: 12.5 mg/kg/injection, schedule: Q01DX005 (ip), vehicle: Klucel (hydroxypropylcellulose) (HPC)
[2] = dose: 50.0 mg/kg/injection, schedule: Q01DX005 (ip), vehicle: Klucel (hydroxypropylcellulose) (HPC)
[3] = dose: 50.0 mg/kg/injection, schedule: Q01DX009 (ip), vehicle: saline with Tween-80
[4] = dose: 100.0 mg/kg/injection, schedule: Q01DX009 (ip), vehicle: saline with Tween-80
[5] = dose: 200.0 mg/kg/injection, schedule: Q01DX009 (ip), vehicle: saline with Tween-80
[6] = dose: 50.0 mg/kg/injection, schedule: Q01DX009 (ip), vehicle: saline
[7] = dose: 100.0 mg/kg/injection, schedule: Q01DX009 (ip), vehicle: saline
[8] = dose: 200.0 mg/kg/injection, schedule: Q01DX009 (ip), vehicle: saline
[9] = dose: 25.0 mg/kg/injection, schedule: Q01DX009 (ip), vehicle: saline with Tween-80
[10] = dose: 12.5 mg/kg/injection, schedule: Q01DX005 (ip), vehicle: saline with Tween-80
[11] = dose: 25.0 mg/kg/injection, schedule: Q01DX005 (ip), vehicle: saline with Tween-80
[12] = dose: 50.0 mg/kg/injection, schedule: Q01DX005 (ip), vehicle: saline with Tween-80

Measured: T/C

O=[N+]([O-])c1nncs1
inactive: dose: 6.25 mg/kg/injection, schedule: Q04DX003 (ip), vehicle: saline with Tween-80 105 % of control | dose: 12.5 mg/kg/injection, schedule: Q04DX003 (ip), vehicle: saline with Tween-80 100 % of control | dose: 25.0 mg/kg/injection, schedule: Q04DX003 (ip), vehicle: saline with Tween-80 110 % of control

CCc1ccc(-n2c(C)nc3[nH]cc(C)c3c2=N)cc1
inactive: [1] 100 % of control | dose: 25.0 mg/kg/injection, schedule: Q01DX005 (ip), vehicle: Klucel (hydroxypropylcellulose) (HPC) 100 % of control | [2] 98 % of control and 100 % of control

COc1cc(CC2C(Cc3ccc4c(c3)OCO4)COC2CO)cc(OC)c1OC (configuration not stated)
inactive: dose: 6.25 mg/kg/injection, schedule: Q04DX002 (ip), vehicle: acetone 95 % of control | dose: 12.5 mg/kg/injection, schedule: Q04DX002 (ip), vehicle: acetone 102 % of control | dose: 25.0 mg/kg/injection, schedule: Q04DX002 (ip), vehicle: acetone 98 % of control

CCOC(=O)c1csc(C2OC(COC(=O)c3ccccc3)C(OC(=O)c3ccccc3)C2OC(=O)c2ccccc2)n1 (configuration not stated)
inactive: [3] 96 % of control | [4] 95 % of control | [5] 93 % of control

C1=Cc2ccccc2C(=C2CCOCC2)c2ccccc21
inactive: [6] 113 % of control | [7] 100 % of control | [8] 94 % of control

c1ccc2c(C3N4CCCN3CC4)c[nH]c2c1 (configuration not stated)
inactive: [9] 103 % of control and 104 % of control and 119 % of control | [3] 98 % of control and 106 % of control and 118 % of control | [4] 103 % of control and 114 % of control and 122 % of control | [5] 105 % of control and 95 % of control

Cc1cc(=O)n(-c2cc(C)c3cc(Cl)ccc3n2)[nH]1
inactive: dose: 100.0 mg/kg/injection, schedule: Q01DX001 (ip), vehicle: saline with Tween-80 93 % of control | dose: 200.0 mg/kg/injection, schedule: Q01DX001 (ip), vehicle: saline with Tween-80 94 % of control | dose: 400.0 mg/kg/injection, schedule: Q01DX001 (ip), vehicle: saline with Tween-80 104 % of control

CCCCN(C)c1ncnc2[nH]ncc12
inactive: dose: 100.0 mg/kg/injection, schedule: Q04DX003 (ip), vehicle: saline 100 % of control

CC(=O)OC1(OC(C)=O)C=C2OCOC2=CC1=O
inactive: dose: 8.75 mg/kg/injection, schedule: Q01DX005 (ip), vehicle: Klucel (hydroxypropylcellulose) (HPC) 91 % of control | dose: 17.5 mg/kg/injection, schedule: Q01DX005 (ip), vehicle: Klucel (hydroxypropylcellulose) (HPC) 103 % of control

Cc1cccc(C2=NCCN2)c1C
inactive: dose: 5.0 mg/kg/injection, schedule: Q04DX003 (ip), vehicle: saline with Tween-80 100 % of control | dose: 10.0 mg/kg/injection, schedule: Q04DX003 (ip), vehicle: saline with Tween-80 100 % of control | dose: 20.0 mg/kg/injection, schedule: Q04DX003 (ip), vehicle: saline with Tween-80 100 % of control

Oc1c(Cl)cc(Cl)cc1/C=N/Nc1ccc2ccccc2n1
inactive: dose: 50.0 mg/kg/injection, schedule: Q04DX003 (ip), vehicle: saline with Tween-80 89 % of control | dose: 100.0 mg/kg/injection, schedule: Q04DX003 (ip), vehicle: saline with Tween-80 94 % of control | dose: 200.0 mg/kg/injection, schedule: Q04DX003 (ip), vehicle: saline with Tween-80 100 % of control

C=C1C(=O)O[C@H]2/C=C(/C)C3=CC(=O)[C@@](C)(C[C@@H](OC(=O)/C(C)=C\C)C12)O3 (some centres not stated)
inactive: dose: 1.56 mg/kg/injection, schedule: Q01DX005 (ip), vehicle: Klucel (hydroxypropylcellulose) (HPC) 102 % of control | dose: 3.12 mg/kg/injection, schedule: Q01DX005 (ip), vehicle: Klucel (hydroxypropylcellulose) (HPC) 105 % of control | dose: 6.25 mg/kg/injection, schedule: Q01DX005 (ip), vehicle: Klucel (hydroxypropylcellulose) (HPC) 105 % of control | [1] 89 % of control and 96 % of control

CCOC(=O)C(C)c1nnc(-c2ccc(OC)cc2)[nH]c1=O (configuration not stated)
inactive: dose: 50.0 mg/kg/injection, schedule: Q01DX009 (ip), vehicle: Klucel (hydroxypropylcellulose) (HPC) 94 % of control | dose: 100.0 mg/kg/injection, schedule: Q01DX009 (ip), vehicle: Klucel (hydroxypropylcellulose) (HPC) 97 % of control | dose: 200.0 mg/kg/injection, schedule: Q01DX009 (ip), vehicle: Klucel (hydroxypropylcellulose) (HPC) 99 % of control

CCCCCCCCCCCCCCCc1c(NC(C)(CC(C)(C)O)[P+](=O)O)c(=O)n(C)n1C (configuration not stated)
inactive: [6] 96 % of control | [7] 88 % of control

CCOC(=O)c1c(-c2ccccc2)csc1NC(=O)CN1CCOCC1
inactive: [10] 98 % of control | [11] 90 % of control | [12] 86 % of control | dose: 200.0 mg/kg/injection, schedule: Q01DX005 (ip), vehicle: saline with Tween-80 88 % of control

CN(C)CCC(=O)c1cccc(O)c1
inactive: dose: 25.0 mg/kg/injection, schedule: Q01DX009 (ip), vehicle: saline 107 % of control | [6] 98 % of control and 105 % of control | [7] 98 % of control and 109 % of control | [8] 97 % of control

O=C(NN1CCOCC1)C(F)(F)F
inactive: dose: 100.0 mg/kg/injection, schedule: Q01DX001 (ip), vehicle: saline 100 % of control | dose: 200.0 mg/kg/injection, schedule: Q01DX001 (ip), vehicle: saline 99 % of control | dose: 400.0 mg/kg/injection, schedule: Q01DX001 (ip), vehicle: saline 99 % of control

NC1=NC(O)(c2ccccc2)C(O)(c2ccccc2)N1 (configuration not stated)
inactive: dose: 25.0 mg/kg/injection, schedule: Q04DX002 (ip), vehicle: saline 98 % of control | dose: 50.0 mg/kg/injection, schedule: Q04DX002 (ip), vehicle: saline 97 % of control | dose: 100.0 mg/kg/injection, schedule: Q04DX002 (ip), vehicle: saline 98 % of control

NC(Cc1c[nH]c2ccccc12)C(=O)NCCS(=O)(=O)O (configuration not stated)
inactive: dose: 60.0 mg/kg/injection, schedule: Q01DX005 (ip), vehicle: saline with Tween-80 102 % of control | dose: 120.0 mg/kg/injection, schedule: Q01DX005 (ip), vehicle: saline with Tween-80 104 % of control | dose: 240.0 mg/kg/injection, schedule: Q01DX005 (ip), vehicle: saline with Tween-80 99 % of control

C=C1C(O)CC2C(O)C3(C)CCC(C)(C)C3C12O (configuration not stated)
inactive: dose: 18.75 mg/kg/injection, schedule: Q01DX009 (ip), vehicle: other 106 % of control | dose: 37.5 mg/kg/injection, schedule: Q01DX009 (ip), vehicle: other 98 % of control | dose: 75.0 mg/kg/injection, schedule: Q01DX009 (ip), vehicle: other 100 % of control | dose: 150.0 mg/kg/injection, schedule: Q01DX009 (ip), vehicle: other 93 % of control

Cc1[nH]nc2oc(=O)c3ccccc3c12
inactive: [2] 105 % of control | dose: 100.0 mg/kg/injection, schedule: Q01DX005 (ip), vehicle: Klucel (hydroxypropylcellulose) (HPC) 102 % of control | dose: 200.0 mg/kg/injection, schedule: Q01DX005 (ip), vehicle: Klucel (hydroxypropylcellulose) (HPC) 102 % of control

C=CCOc1ccccc1N/N=C(\Cl)C(=O)OC
inactive: [10] 102 % of control | [11] 108 % of control | [12] 109 % of control and 114 % of control

C[N+]1=C(/C=C/Nc2ccc3ccc4cccc5ccc2c3c45)C(C)(C)c2ccccc21
inactive: dose: 6.25 mg/kg/injection, schedule: Q01DX009 (ip), vehicle: saline with Tween-80 108 % of control | dose: 12.5 mg/kg/injection, schedule: Q01DX009 (ip), vehicle: saline with Tween-80 100 % of control | [9] 105 % of control | [3] 89 % of control

COCCOC(=O)NCP(Cl)(CNC(=O)OCCOC)(CNC(=O)OCCOC)CNC(=O)OCCOC
inactive: [6] 100 % of control | [7] 99 % of control | [8] 105 % of control

NC(=O)Nc1ccccc1O
inactive: [4] 98 % of control | [5] 117 % of control | dose: 400.0 mg/kg/injection, schedule: Q01DX009 (ip), vehicle: saline with Tween-80 107 % of control
